In experiment [1] the target is Protein kinase C beta type (Homo sapiens, UniProt P05771). Put plainly: Inhibition of Protein kinase C beta 2.
The target in experiment [2] is Protein kinase C (PKC). Put plainly: Inhibition of rat brain PKC.
The nature of experiment [3]: Selectivity ratio of IC50 of PKA to PKC.
Experiment [4] in a line: Selectivity ratio of IC50 of PKCalpha to PKCbeta II.

Chain of Protein kinase C beta type (P05771 whole entry): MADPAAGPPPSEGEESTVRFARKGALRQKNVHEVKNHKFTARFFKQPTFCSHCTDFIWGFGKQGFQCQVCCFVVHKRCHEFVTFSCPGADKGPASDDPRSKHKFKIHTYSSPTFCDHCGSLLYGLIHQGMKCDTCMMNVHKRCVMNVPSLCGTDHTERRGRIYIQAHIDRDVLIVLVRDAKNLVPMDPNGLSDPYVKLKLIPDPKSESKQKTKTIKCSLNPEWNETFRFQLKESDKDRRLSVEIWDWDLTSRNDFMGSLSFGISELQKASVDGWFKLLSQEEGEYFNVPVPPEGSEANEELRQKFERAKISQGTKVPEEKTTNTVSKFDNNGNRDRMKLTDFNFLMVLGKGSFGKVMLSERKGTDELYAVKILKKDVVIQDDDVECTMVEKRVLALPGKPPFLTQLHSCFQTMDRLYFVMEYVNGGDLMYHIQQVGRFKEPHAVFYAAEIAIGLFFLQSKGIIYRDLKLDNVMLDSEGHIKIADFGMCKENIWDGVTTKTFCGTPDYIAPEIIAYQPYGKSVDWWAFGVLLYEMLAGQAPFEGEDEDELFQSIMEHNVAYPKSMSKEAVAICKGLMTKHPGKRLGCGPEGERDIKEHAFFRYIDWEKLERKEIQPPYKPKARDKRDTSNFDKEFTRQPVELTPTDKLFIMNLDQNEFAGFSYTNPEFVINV

Take `O=C1NC(=O)C2=C1c1cn(c3ccccc13)CCCOC(CO)CCn1cc2c2ccccc21` (centres undefined): the IC50 – broadly, the concentration that gives 50% inhibition – in experiment [1] turned out to be 270 nM; in experiment [2], 6400 nM. The Ratio in experiment [3] is more than 10000; in experiment [4], 25.

For the origin of these results see ChEMBL document CHEMBL1128817, “Synthesis of bisindolylmaleimide macrocycles” (Bioorg Med Chem Lett, 1995).
